According to PubChem BioAssay (NCI):
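96-well plates; 48 h exposure; 5 concentrations. Endpoints by linear interpolation between flanking doses. Not reached: highest tested concentration assigned. TGI is the concentration that stops growth completely.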

How the values were obtained:
Test in all cases: NCI tumour cell line growth inhibition, 48 h
[1] = test system: CAKI-1 renal
[2] = test system: CCRF-CEM leukemia
[3] = test system: DLD-1 colon
[4] = test system: NCI-H23 lung
[5] = test system: SK-MEL-2 melanoma
[6] = test system: K-562 leukemia
[7] = test system: MOLT-4 leukemia
[8] = test system: SW-620 colon
[9] = test system: SF-268 CNS
[10] = test system: MALME-3M melanoma
[11] = test system: ACHN renal
[12] = test system: LOX IMVI melanoma
[13] = test system: RXF 393 renal
[14] = test system: HCT-116 colon
[15] = test system: DMS 114 small cell lung
[16] = test system: KM12 colon
[17] = test system: KM20L2 colon
[18] = test system: NCI-H522 lung
[19] = test system: HL-60(TB) leukemia
[20] = test system: HOP-18 NSCLC
[21] = test system: HCC-2998 colon
[22] = test system: OVCAR-4 ovarian
[23] = test system: 786-0 renal
[24] = test system: OVCAR-5 ovarian
[25] = test system: HT29 colon
[26] = test system: TK-10 renal
[27] = test system: SNB-75 CNS
[28] = test system: NCI-H226 lung
[29] = test system: HOP-62 NSCLC
[30] = test system: SF-539 CNS
[31] = test system: RPMI-8226 leukemia
[32] = test system: SF-295 CNS
[33] = test system: IGROV1 ovarian
[34] = test system: SNB-78 CNS
[35] = test system: A549 NSCLC
[36] = test system: SNB-19 CNS
[37] = test system: M14 melanoma
[38] = test system: OVCAR-3 ovarian
[39] = test system: UACC-257 melanoma
[40] = test system: SN12C renal
[41] = test system: COLO 205 colon
[42] = test system: NCI-H460 lung
[43] = test system: XF 498 CNS
[44] = test system: LXFL 529 NSCLC
[45] = test system: SK-MEL-28 melanoma
[46] = test system: SK-OV-3 ovarian
[47] = test system: OVCAR-8 ovarian
[48] = test system: UO-31 renal
[49] = test system: UACC-62 melanoma
[50] = test system: EKVX NSCLC
[51] = test system: U251 CNS
[52] = test system: HCT-15 colon
[53] = test system: M19-MEL melanoma
[54] = test system: HOP-92 NSCLC
[55] = test system: A498 renal
[56] = test system: DMS 273 small cell lung
[57] = test system: SK-MEL-5 melanoma
[58] = test system: SR leukemia

Cc1ccc2[nH]c3c(ncc4[nH]c5ccccc5c43)c2c1
TGI [1]: 31.6 µM
TGI [2]: 35.9 µM
TGI [3]: 31 µM
TGI [4]: > 10 µM
TGI [5]: 33.6 µM
TGI [6]: 30.2 µM
TGI [7]: 35.2 µM
TGI [8]: 26.7 µM
TGI [9]: 32.4 µM
TGI [10]: 33.7 µM
TGI [11]: 30.3 µM
TGI [12]: 31.6 µM
TGI [13]: 27.2 µM
TGI [14]: 30.8 µM
TGI [15]: 31.3 µM
TGI [16]: 29.6 µM
TGI [17]: 31.8 µM
TGI [18]: 39.6 µM
TGI [19]: 36.3 µM
TGI [20]: 28.1 µM
TGI [21]: 30.2 µM
TGI [22]: 37.9 µM
TGI [23]: 31.5 µM
TGI [24]: 30.8 µM
TGI [25]: 24 µM
TGI [26]: 37.6 µM
TGI [27]: 28.5 µM
TGI [28]: 30.4 µM
TGI [29]: > 10 µM
TGI [30]: 30.7 µM
TGI [31]: 44.3 µM
TGI [32]: 30.9 µM
TGI [33]: 29.6 µM
TGI [34]: 32.6 µM
TGI [35]: 32.7 µM
TGI [36]: 31.6 µM
TGI [37]: 35.8 µM
TGI [38]: > 10 µM
TGI [39]: 33.2 µM
TGI [40]: 30.2 µM
TGI [41]: 34.3 µM
TGI [42]: 30.6 µM
TGI [43]: 35.8 µM
TGI [44]: 33.3 µM
TGI [45]: 32 µM
TGI [46]: 25.2 µM
TGI [47]: 35.9 µM
TGI [48]: 30.3 µM
TGI [49]: 31.7 µM
TGI [50]: 29.3 µM
TGI [51]: 28 µM

Cc1ccc(O)c(C(=O)CCCC(=O)c2cc(C)ccc2O)c1
TGI [1]: > 100 µM
TGI [2]: > 100 µM
TGI [3]: > 100 µM
TGI [4]: > 100 µM
TGI [5]: > 100 µM
TGI [6]: > 100 µM
TGI [7]: > 100 µM
TGI [8]: > 100 µM
TGI [9]: > 100 µM
TGI [10]: > 100 µM
TGI [11]: > 100 µM
TGI [52]: > 100 µM
TGI [12]: > 100 µM
TGI [15]: > 100 µM
TGI [16]: > 100 µM
TGI [17]: > 100 µM
TGI [18]: > 100 µM
TGI [19]: > 100 µM
TGI [20]: > 100 µM
TGI [21]: > 100 µM
TGI [22]: > 100 µM
TGI [23]: > 100 µM
TGI [24]: > 100 µM
TGI [25]: > 100 µM
TGI [26]: > 100 µM
TGI [27]: > 100 µM
TGI [53]: > 100 µM
TGI [28]: > 100 µM
TGI [29]: > 100 µM
TGI [30]: > 100 µM
TGI [31]: > 100 µM
TGI [32]: > 100 µM
TGI [54]: > 100 µM
TGI [33]: > 100 µM
TGI [55]: > 100 µM
TGI [34]: > 100 µM
TGI [36]: > 100 µM
TGI [37]: > 100 µM
TGI [56]: > 100 µM
TGI [39]: > 100 µM
TGI [40]: > 100 µM
TGI [41]: > 100 µM
TGI [42]: > 100 µM
TGI [43]: > 100 µM
TGI [44]: > 100 µM
TGI [45]: > 100 µM
TGI [46]: > 100 µM
TGI [47]: > 100 µM
TGI [48]: > 100 µM
TGI [49]: > 100 µM
TGI [50]: > 100 µM
TGI [57]: > 100 µM
TGI [51]: > 100 µM

COc1ccc(CNc2nc3c(NC(C)=O)cc(C(F)(F)F)cc3nc2-c2ccccc2)cc1OC
TGI [1]: > 100 µM
TGI [2]: > 100 µM
TGI [3]: > 100 µM
TGI [4]: > 100 µM
TGI [5]: > 100 µM
TGI [6]: > 100 µM
TGI [7]: > 100 µM
TGI [8]: > 100 µM
TGI [9]: > 100 µM
TGI [10]: > 100 µM
TGI [52]: > 100 µM
TGI [12]: > 100 µM
TGI [14]: > 100 µM
TGI [15]: > 100 µM
TGI [16]: > 100 µM
TGI [17]: > 100 µM
TGI [18]: 23.5 µM
TGI [19]: > 100 µM
TGI [21]: > 100 µM
TGI [22]: 95.7 µM
TGI [23]: > 100 µM
TGI [24]: > 100 µM
TGI [25]: > 100 µM
TGI [26]: > 100 µM
TGI [27]: 4.48 µM
TGI [53]: > 100 µM
TGI [29]: > 100 µM
TGI [30]: > 100 µM
TGI [31]: > 100 µM
TGI [32]: > 100 µM
TGI [33]: > 100 µM
TGI [55]: > 100 µM
TGI [34]: > 100 µM
TGI [35]: > 100 µM
TGI [36]: > 100 µM
TGI [37]: > 100 µM
TGI [56]: > 100 µM
TGI [38]: > 100 µM
TGI [39]: > 100 µM
TGI [40]: > 100 µM
TGI [41]: > 100 µM
TGI [42]: > 100 µM
TGI [43]: > 100 µM
TGI [44]: > 100 µM
TGI [45]: > 100 µM
TGI [46]: > 100 µM
TGI [47]: > 100 µM
TGI [48]: > 100 µM
TGI [49]: > 100 µM
TGI [50]: > 100 µM
TGI [57]: > 100 µM
TGI [51]: > 100 µM

CN(C)c1ccc(/C=N\N2C(=O)c3ccccc3C2=O)cc1
TGI [1]: > 100 µM
TGI [2]: > 100 µM
TGI [3]: > 100 µM
TGI [4]: > 100 µM
TGI [5]: > 100 µM
TGI [6]: > 100 µM
TGI [7]: > 100 µM
TGI [8]: > 100 µM
TGI [9]: > 100 µM
TGI [10]: > 100 µM
TGI [11]: > 100 µM
TGI [52]: > 100 µM
TGI [12]: > 100 µM
TGI [13]: > 100 µM
TGI [14]: > 100 µM
TGI [15]: > 100 µM
TGI [16]: > 100 µM
TGI [17]: > 100 µM
TGI [19]: > 100 µM
TGI [20]: > 100 µM
TGI [21]: > 100 µM
TGI [22]: > 100 µM
TGI [58]: > 100 µM
TGI [23]: > 100 µM
TGI [24]: > 100 µM
TGI [25]: > 100 µM
TGI [26]: > 100 µM
TGI [27]: > 100 µM
TGI [53]: > 100 µM
TGI [28]: > 100 µM
TGI [29]: > 100 µM
TGI [30]: > 100 µM
TGI [31]: > 100 µM
TGI [32]: > 100 µM
TGI [54]: > 100 µM
TGI [33]: > 100 µM
TGI [55]: > 100 µM
TGI [34]: > 100 µM
TGI [35]: > 100 µM
TGI [36]: > 100 µM
TGI [37]: > 100 µM
TGI [56]: > 100 µM
TGI [38]: > 100 µM
TGI [39]: > 100 µM
TGI [40]: > 100 µM
TGI [42]: > 100 µM
TGI [43]: > 100 µM
TGI [44]: > 100 µM
TGI [45]: > 100 µM
TGI [47]: > 100 µM
TGI [48]: > 100 µM
TGI [49]: > 100 µM
TGI [50]: > 100 µM
TGI [57]: > 100 µM
